Earlier results, collected in PubChem BioAssay AID1259409 (Chemical Carcinogenesis Research Information System (CCRIS), 2018).

Test system: rodent chemically induced tumor inhibition, incidence and multiplicity
Experiment: CCRIS tumor inhibitor studies
Details: Route [Inhibitor]: ORAL, Species: RAT; for tumour outcome (control, treated, inhibition, significance): Promoter: NONE USED

SMILES: CC(=O)OC/C=C(C)/C=C/C=C(C)/C=C/C1=C(C)CCCC1(C)C
- outcome (Carcinogen: N-BIS-(2-HYDROXYPROPYL)NITROSAMINE [53609-64-6], Dose [Inhibitor]: 0, 0.1% IN DIET 4 WK BEGINNING 1 WK POST CARCINOGEN DOSE (STUDY DURATION: 5 WK), Strain/Sex: F344/DUCRJ/MALE, Target Tissue: Type of Lesion: THYROID GLAND: ADENOMATOUS GROWTH PATTERN, Dose [Carcinogen]: 2800 MG/KG BW ONCE (STUDY DURATION: 5 WK), Promoter: NONE): 0%, 0%, 0%, not significant
- tumour outcome (control, treated, inhibition, significance) (Carcinogen: N-METHYL-N-NITROSOUREA, 684-93-5, Dose [Inhibitor]: 0, 328 MG/KG DIET FOR 88 D BEGINNING 2 D POST CARCINOGEN DOSE (STUDY DURATION: 90 D), Strain/Sex: SPRAGUE-DAWLEY/FEMALE, Target Tissue: Type of Lesion: MAMMARY GLAND: ADENOCARCINOMA, Dose [Carcinogen]: 45 MG/KG BW ONCE): 100%, 73%, 27%, p<0.05
- tumour outcome (control, treated, inhibition, significance) (Carcinogen: N-METHYL-N-NITROSOUREA, 684-93-5, Dose [Inhibitor]: 0, 328 MG/KG OF DIET BEGINNING 2 D POST CARCINOGEN DOSE AND CONTINUING FOR DURATION OF STUDY (STUDY DURATION: 90 D), Strain/Sex: SPRAGUE-DAWLEY/FEMALE, Target Tissue: Type of Lesion: MAMMARY GLAND: ADENOCARCINOMA, Dose [Carcinogen]: 45 MG/KG BW ONCE AT 50 D OF AGE): 100%, 80%, 20%, not calculated
- tumour outcome (control, treated, inhibition, significance) (Carcinogen: N-METHYL-N-NITROSOUREA, 684-93-5, Dose [Inhibitor]: 0, 328 MG/KG OF DIET FOR DURATION OF STUDY BEGINNING 1 WK PRIOR TO CARCINOGEN TREATMENT (STUDY DURATION: 117 D), Strain/Sex: SPRAGUE-DAWLEY /FEMALE, Target Tissue: Type of Lesion: MAMMARY GLAND: ADENOCARCINOMA, Dose [Carcinogen]: 50 MG/KG BW ONCE): 100%, 84%, 16%, not significant
- tumour outcome (control, treated, inhibition, significance) (Carcinogen: N-METHYL-N-NITROSOUREA, 684-93-5, Dose [Inhibitor]: 0.8 MMOL/KG DIET DAILY STARTING 12 D AFTER CARCINOGEN TREATMENT THROUGH ABOUT 8 MO AFTER FIRST CARCINOGEN DOSE (STUDY DU, Strain/Sex: F344/MALE, Target Tissue: Type of Lesion: COLON: ADENOCARCINOMA, Dose [Carcinogen]: 2.5 MG 1/WK FOR 2 WK): 5/39 (13%), 4/29 (14%), -8%, not significant
- tumour outcome (control, treated, inhibition, significance) (Carcinogen: N-METHYL-N-NITROSOUREA, 684-93-5, Dose [Inhibitor]: 0.8 MMOL/KG DIET DAILY STARTING 12 D AFTER CARCINOGEN TREATMENT THROUGH ABOUT 8 MO AFTER FIRST CARCINOGEN DOSE (STUDY DU, Strain/Sex: F344/MALE, Target Tissue: Type of Lesion: COLON: ADENOMA, Dose [Carcinogen]: 2.5 MG 1/WK FOR 2 WK): 16/39 (41%), 9/29 (31%), 24%, not significant
- tumour outcome (control, treated, inhibition, significance) (Carcinogen: N-METHYL-N-NITROSOUREA, 684-93-5, Dose [Inhibitor]: 1.0 MM IN DIET DAILY (328 MG/KG DIET) STARTING D 60 OF AGE UNTIL END OF STUDY (STUDY DURATION: 4 MO), Strain/Sex: SPRAGUE-DAWLEY/FEMALE, Target Tissue: Type of Lesion: MAMMARY GLAND: CARCINOMA, Dose [Carcinogen]: 2.5 MG/100 G BODY WEIGHT IN 0.9% NACL SOLUTION ADMINISTERED AT D 50 AND 57 OF AGE): 87%, 54%, 38%, p<0.01
- tumour outcome (control, treated, inhibition, significance) (Carcinogen: N-METHYL-N-NITROSOUREA, 684-93-5, Dose [Inhibitor]: 1 MMOL/KG DIET DAILY STARTING 3 D AFTER LAST CARCINOGEN DOSE THROUGH END OF STUDY (STUDY DURATION: 129 D), Strain/Sex: SPRAGUE-DAWLEY/FEMALE, Target Tissue: Type of Lesion: MAMMARY GLAND: TUMOR, Dose [Carcinogen]: 50 MG/KG BW AT BOTH 50 AND 57 D OF AGE): 17/17 (100%), 12/18 (67%), 33%, p<0.001
- tumour outcome (control, treated, inhibition, significance) (Carcinogen: N-METHYL-N-NITROSOUREA, 684-93-5, Dose [Inhibitor]: 1 MMOL/KG DIET DAILY STARTING 3 D AFTER LAST CARCINOGEN DOSE THROUGH END OF STUDY (STUDY DURATION: 182 D), Strain/Sex: SPRAGUE-DAWLEY/FEMALE, Target Tissue: Type of Lesion: MAMMARY GLAND: TUMOR, Dose [Carcinogen]: 15 MG/KG BW AT BOTH 50 AND 57 D OF AGE): 12/40 (30%), 5/39 (13%), 57%, not significant
- tumour outcome (control, treated, inhibition, significance) (Carcinogen: N-METHYL-N-NITROSOUREA, 684-93-5, Dose [Inhibitor]: 2 MMOL/KG DIET DAILY STARTING 3 D AFTER LAST CARCINOGEN DOSE THROUGH END OF STUDY (STUDY DURATION: 129 D), Strain/Sex: SPRAGUE-DAWLEY/FEMALE, Target Tissue: Type of Lesion: MAMMARY GLAND: TUMOR, Dose [Carcinogen]: 50 MG/KG BW AT BOTH 50 AND 57 D OF AGE): 17/17 (100%), 2/16 (13%), 87%, p<0.001
- tumour outcome (control, treated, inhibition, significance) (Carcinogen: N-METHYL-N-NITROSOUREA, 684-93-5, Dose [Inhibitor]: 2 MMOL/KG DIET DAILY STARTING 3 D AFTER LAST CARCINOGEN DOSE THROUGH END OF STUDY (STUDY DURATION: 182 D), Strain/Sex: SPRAGUE-DAWLEY/FEMALE, Target Tissue: Type of Lesion: MAMMARY GLAND: TUMOR, Dose [Carcinogen]: 15 MG/KG BW AT BOTH 50 AND 57 D OF AGE): 12/40 (30%), 0/40 (0%), 100%, p<0.001
- tumour outcome (control, treated, inhibition, significance) (Carcinogen: N-METHYL-N-NITROSOUREA, 684-93-5, Dose [Inhibitor]: 300 MG/KG OF DIET DAILY STARTING 7 D AFTER CARCINOGEN TREATMENT AND CONTINUING FOR DURATION OF STUDY (STUDY DURATION: 13, Strain/Sex: SPRAGUE-DAWLEY/FEMALE, Target Tissue: Type of Lesion: MAMMARY GLAND: ADENOCARCINOMA, Dose [Carcinogen]: 50 MG/KG BW IN 0.9% SALINE ONCE AT 50 D OF AGE): 25/25 (100%), 23/25 (92%), 8%, not significant
- tumour outcome (control, treated, inhibition, significance) (Carcinogen: N-METHYL-N-NITROSOUREA, 684-93-5, Dose [Inhibitor]: 328 MG/KG DIET DAILY FOR 4 MO STARTING 10 D AFTER START OF CARCINOGEN TREATMENT AND CONTINUING FOR DURATION OF STUDY (ST, Strain/Sex: SPRAGUE-DAWLEY/FEMALE, Target Tissue: Type of Lesion: MAMMARY GLAND: ADENOCARCINOMA, Dose [Carcinogen]: 2.5 MG/100 G BW IN 0.9% SALINE AND ACIDIFIED (PH 4 TO 5) WITH ACETIC ACID AT AGES 50 AND 57 D): 88%, 53%, 40%, p<0.01
- tumour outcome (control, treated, inhibition, significance) (Carcinogen: N-METHYL-N-NITROSOUREA, 684-93-5, Dose [Inhibitor]: 328 MG/KG IN DIET BEGINNING AT D 60 (STUDY DURATION: 129 D), Strain/Sex: SPRAGUE-DAWLEY/FEMALE, Target Tissue: Type of Lesion: MAMMARY GLAND: TUMOR, Dose [Carcinogen]: 2.5 MG/100 G AT 50 AND 57 D OF AGE): 22/30 (73%), 11/30 (37%), 49%, p<0.005
- tumour outcome (control, treated, inhibition, significance) (Carcinogen: N-METHYL-N-NITROSOUREA, 684-93-5, Dose [Inhibitor]: 328 MG/KG IN DIET BEGINNING AT D 60 (STUDY DURATION: 175 D), Strain/Sex: SPRAGUE-DAWLEY/FEMALE, Target Tissue: Type of Lesion: MAMMARY GLAND: TUMOR, Dose [Carcinogen]: 1.25 MG/100 G BODY WEIGHT IN 0.9% NACL SOLUTION ADMINISTERED AT D 50 AND 57 OF AGE): 8/30 (27%), 3/30 (10%), 63%, p<0.01
- tumour outcome (control, treated, inhibition, significance) (Dose [Inhibitor]: 3 UMOL/G DIET, Strain/Sex: SPRAGUE-DAWLEY/FEMALE, Target Tissue: Type of Lesion: LIVER: TUMOR, Dose [Carcinogen]: 1 PPM IN DIET): 76%, 79%, -4%, not calculated
- tumour outcome (control, treated, inhibition, significance) (Dose [Inhibitor]: 3 UMOL/G DIET, Strain/Sex: SPRAGUE-DAWLEY/MALE, Target Tissue: Type of Lesion: LIVER: TUMOR, Dose [Carcinogen]: 1 PPM IN DIET): 89%, 88%, 1%, not calculated
- tumour outcome (control, treated, inhibition, significance) (Dose [Inhibitor]: 30 UMOL/G DIET, Strain/Sex: SPRAGUE-DAWLEY/FEMALE, Target Tissue: Type of Lesion: LIVER: TUMOR, Dose [Carcinogen]: 1 PPM IN DIET): 76%, 84%, -11%, not calculated
- tumour outcome (control, treated, inhibition, significance) (Dose [Inhibitor]: 30 UMOL/G DIET, Strain/Sex: SPRAGUE-DAWLEY/MALE, Target Tissue: Type of Lesion: LIVER: TUMOR, Dose [Carcinogen]: 1 PPM IN DIET): 89%, 92%, -3%, not calculated
